Reference: patent publication US20250169496A1, “USE OF 2-AMINO-3-HYDROXY-3-METHYLBUTYRIC ACID AND/OR 2-AMINO-3-(4-HYDROXYPHENYL) BUTYRIC ACID” (NANJING TIANNONG BIOTECHNOLOGY CO., LTD., priority 2021, published 2025)
Values joined by “and” are separate entries in the source; they are usually repeats but may differ in a detail not shown here. Identical values can stand only once.

Assays:
[1] = system: Pseudomonas syringae PstDC3000; assay: Induced resistance of Arabidopsis to infection of Pseudomonas syringae; assay type: in vivo; settings: for Disease index: Arabidopsis 3 d after PstDC3000 inoculation; for CFU/mg (number of bacteria per mg of leaves): Arabidopsis leaves 3 d after PstDC3000 inoculation; for Decrease of disease index / Decrease of number of bacteria per mg of leaves: compared to blank control
Experimental: Take 2-amino-3-hydroxy-3-methylbutyric acid, dissolve it in sterile water, dilute the solution with sterile water by gradient into 100 nM, 1,000 nM and 10,000 nM solutions, set a blank control, and meanwhile add 0.02% Tween 20 as a surfactant. Spread Pseudomonas syringaePstDC3000 on an LB plate, and culture it at 28° C. for 48h; pick a monoclonal colony, inoculate it in a 50 mL centrifuge tube containing 2 mL of medium, culture it on a shaker at 28° C., 250 rpm, monitor changes of OD600 of the bacterial solution once every 1-2 h, and stop bacteria culturing before OD600 reaches 0.8; transfer 1 mL of the bacterial solution to a sterile 1.5 mL centrifuge tube, centrifuge it at 8000 rpm for 2 min, and collect the precipitate; remove the supernatant, wash the precipitate with 10 mM magnesium chloride for three times and centrifuge, lastly re-suspend PstDC3000 in the 10 mM magnesium chloride until its OD600 reaches 0.001, and keep it for future use. Soake Arabidopsis seeds in 75% alcohol for 3 min, then wash them with sterile water for 4 times, inoculate it in culture dishes filled with ½ MS medium, 12 seeds per dish, vernalize the ½ MS culture dishes containing seeds at 4° C. for 3 d to break dormancy, then put them in a 22° C. culture room with luminous intensity of 100μE m^−2s-^1(16 hillumination/8 h darkness), slowly pour the above 2-amino-3-hydroxy-3-methylbutyric acid at different concentrations into the culture dishes until the entire Arabidopsis seedlings are submerged after the seedlings have grown for 2 weeks, maintain this state for 2-3 minutes, and then pour the treatment solution out of the culture dishes, treat it once every 24 h, twice in total, inoculate PstDC3000 suspension (OD600=0.01) to Arabidopsis leaves by the same submerging method 24 h after the second treatment, seal the culture dishes with medical breathable adhesive after the inoculation, put them in the culture room for continued culturing. 3 d after, determine the number of bacteria after different treatments, observe the morbidity of Arabidopsis, and calculate the disease index by the method same as the disease index calculation formula in Embodiment 2.
Grading standard of diseases caused by PstDC3000(with leaf as a unit): • Level 0: No disease spot on the leaf surface; • Level 1: The area of the disease spots accounts for 0%-10% of the whole leaf area; • Level 2: The area of the disease spots accounts for 10%-25% of the whole leaf area; • Level 3: The area of the disease spots accounts for 25%-50% of the whole leaf area; • Level 4: The area of the disease spots accounts for 50%-75% of the whole leaf area; • Level 5: The area of the disease spots accounts for […] of the whole leaf area.

wheat powdery mildew = assay: Field test of induced resistance of wheat to powdery mildew; assay type: in vivo; settings: 1,000 nM; for Thousand kernel weight: dried harvested wheat seeds; for Relative immune effect: vs additive control
Experimental: Spraya 2-amino-3-hydroxy-3-methylbutyric acid solution (surfactant Tween 20 (0.02% (v/v) is added) at a concentration of 1,000 nM on stems and leaves in the field of Jiangsu Academy of Agricultural Sciences, use surfactant Tween 20 with a spray volume percent of 0.02% as an additive control, Atailing with 30 g sprayed per mu as a positive control, and repeat each treatment for three times. Investigate the wheat morbidity level of each treatment, record the morbidity level according to the wheat powdery mildew grading standard in the Pesticide—Guidelines for the Field Efficacy Trials(I) and calculate the disease index and relative immune effect by the calculation method same as that for the disease index and relative immune effect of tomato spotted wilt. After drying of the harvested wheat seeds, determine the thousand kernel weight of the wheat seeds under different treatments. The wheat powdery mildew grading standard (with leaf as a unit): • Level 1: The area of the disease spots accounts for less than 5% of the whole leaf area; • Level 3: The area of the disease spots accounts for 6%-15% of the whole leaf area; • Level 5: The area of the disease spots accounts for 16%-25% of the whole leaf area; • Level 7: The area of the disease spots accounts for 26%-50% of the whole leaf area; • Level 9: The area of the disease spots accounts for more than 50% of the whole leaf area.

[2] = system: tea under low-temperature stress; assay: Tea seedlings under low-temperature stress; assay type: in vivo, tea (Baiye 1#); settings: for PIABS (photosynthetic performance index): tea seedlings after 24 h at −4° C.; for Cold damage index: tea seedlings, 24 h at −4° C., recovered 3 d; for Decrease of cold damage index / Increase of PIABS: 10,000 nM (so in the source), tea, low-temperature stress, vs 0 nM
Experimental: The tea trees for test are cutting seedling Baiye 1#. Select tea seedlings with consistent growth, move them into plastic bowls with a diameter of 18 cm, put them in a greenhouse of 25° C. and RH 60%-70%, adapt to growth for about one week, and carry out the test. […] The spray treatment method is the same as the Arabidopsis treatment method in Embodiment 6, the time of low-temperature stress is 24 h, and the temperature is set at −4° C. Take out tea seedlings after stress, conduct dark treatment at room temperature for 30 min, then determine the chlorophyll fluorescence of leaves at the top of tea seedlings by plant efficiency Handy-PEA, then put them in a 25° C. greenhouse and recover them for 3 d, observe and calculate the cold damage condition and grade it. The statistics and grading standard of the cold damage index is shown in Table 12, the calculation formula is as follows and the results are as shown in Table 13. [formula] [table]

cotton under salt stress = assay: Hydroponic cotton under salt stress (100 mM NaCl); assay type: in vivo, cotton (Si Kang 1#); settings: 100 mM NaCl for three days
Experimental: The experimental material is “Si Kang 1#” cotton. Use 500 mL plastic cups for hydroponic culture and replace the ½Hoagland nutrient solution once every two days. Spray a 2-amino-3-hydroxy-3-methylbutyric acid solution on the leaf surface when the cotton seedlings grow until the second true leaf is fully open, set the concentrations at 0, 1, 10, 100 and 1,000 nM in the experiment, and add 0.02% Tween 20 as a surfactant. Spray once every 24 h, twice in total, add NaCl to the ½Hoagland nutrient solution on the second day after treatment to make its final concentration be 100 mM, and conduct salt stress treatment. Repeat each treatment three times. Rewater after three days of salt stress, observe the salt damage symptoms of cotton, and calculate the salt damage index by the following formula: […]

**Q.** For `CC(c1ccc(O)cc1)C(N)C(=O)O` (stereo not shown) [2-amino-3-(4-hydroxyphenyl) butyric acid], which Disease index ([1]; 100 nM) is on record?
**A.** 40.06 ± 0.98 b

**Q.** What about the “CFU/mg (number of bacteria per mg of leaves)” value ([1]; 100 nM) of the same compound?
**A.** 4.43 × 10^5 CFU/mg

**Q.** And the “Decrease of disease index” value ([1]; 100 nM)?
**A.** 51.11%

**Q.** And the “Decrease of number of bacteria per mg of leaves” value (from here on “Decrease … per mg of leaves”) ([1]; 100 nM)?
**A.** 86.20%

**Q.** What about the Disease index ([1]; 1,000 nM) of the same compound?
**A.** 36.81 ± 0.28 c

**Q.** And the “CFU/mg (number of bacteria per mg of leaves)” value ([1]; 1,000 nM)?
**A.** 3.04 × 10^5 CFU/mg

**Q.** And the “Decrease of disease index” value ([1]; 1,000 nM)?
**A.** 55.07%

**Q.** What about the “Decrease … per mg of leaves” value ([1]; 1,000 nM) of the same compound?
**A.** 90.53%

**Q.** What about the “Decrease of disease index” value ([1]; 10,000 nM) of the same compound?
**A.** 66.84%

**Q.** And the “Decrease … per mg of leaves” value ([1]; 10,000 nM)?
**A.** 91.37%

**Q.** And the Thousand kernel weight (wheat powdery mildew)?
**A.** 37.92 g and 37.92 ± 0.21 a g

**Q.** And the Relative immune effect (wheat powdery mildew)?
**A.** 47.28%

**Q.** And the “PIABS (photosynthetic performance index)” value ([2]; 1 nM)?
**A.** 28.10 ± 3.10cd

**Q.** And the Cold damage index ([2]; 1 nM)?
**A.** 60%

**Q.** What about the “PIABS (photosynthetic performance index)” value ([2]; 10 nM) of the same compound?
**A.** 31.94 ± 1.37bc

**Q.** And the Cold damage index ([2]; 10 nM)?
**A.** 55%

**Q.** And the “PIABS (photosynthetic performance index)” value ([2]; 100 nM)?
**A.** 34.67 ± 3.27ab

**Q.** And the Cold damage index ([2]; 100 nM)?
**A.** 35%

**Q.** And the “PIABS (photosynthetic performance index)” value ([2]; 1,000 nM)?
**A.** 38.56 ± 2.23a

**Q.** And the Cold damage index ([2]; 1,000 nM)?
**A.** 30%

**Q.** And the “Decrease of cold damage index” value [2]?
**A.** 40%

**Q.** What about the “Increase of PIABS” value [2] of the same compound?
**A.** 90.8%

**Q.** What about the Death rate (cotton under salt stress; 1 nM) of the same compound?
**A.** 48%

**Q.** What about the Salt damage index (cotton under salt stress; 1 nM) of the same compound?
**A.** 64%

**Q.** And the Death rate (cotton under salt stress; 10 nM)?
**A.** 45%

**Q.** What about the Salt damage index (cotton under salt stress; 10 nM) of the same compound?
**A.** 56%

**Q.** And the Death rate (cotton under salt stress; 100 nM)?
**A.** 30%

**Q.** And the Salt damage index (cotton under salt stress; 100 nM)?
**A.** 52%

**Q.** And the Death rate (cotton under salt stress; 1,000 nM)?
**A.** 29%

**Q.** What about the Salt damage index (cotton under salt stress; 1,000 nM) of the same compound?
**A.** 43%

**Q.** `CC(C)(O)C(N)C(=O)O` (stereo not shown) [2-amino-3-hydroxy-3-methylbutyric acid] was tested. Which Disease index ([1]; 100 nM) did it give?
**A.** 40.90 ± 2.41 b

**Q.** What about the “CFU/mg (number of bacteria per mg of leaves)” value ([1]; 100 nM) of the same compound?
**A.** 9.46 × 10^5 CFU/mg

**Q.** What about the “Decrease of disease index” value ([1]; 100 nM) of the same compound?
**A.** 43.22%

**Q.** What about the “Decrease … per mg of leaves” value ([1]; 100 nM) of the same compound?
**A.** 70.34%

**Q.** What about the Disease index ([1]; 1,000 nM) of the same compound?
**A.** 38.90 ± 1.96 b

**Q.** And the “CFU/mg (number of bacteria per mg of leaves)” value ([1]; 1,000 nM)?
**A.** 7.11 × 10^5 CFU/mg

**Q.** And the “Decrease of disease index” value ([1]; 1,000 nM)?
**A.** 45.60%

**Q.** And the “Decrease … per mg of leaves” value ([1]; 1,000 nM)?
**A.** 77.71%

**Q.** And the “CFU/mg (number of bacteria per mg of leaves)” value ([1]; 10,000 nM)?
**A.** 3.81×10^5 CFU/mg

**Q.** What about the “Decrease of disease index” value ([1]; 10,000 nM) of the same compound?
**A.** 58.07%

**Q.** And the “Decrease … per mg of leaves” value ([1]; 10,000 nM)?
**A.** 88.06%

**Q.** What about the Thousand kernel weight (wheat powdery mildew) of the same compound?
**A.** 32.61 g and 32.61 ± 0.18 a g

**Q.** And the Relative immune effect (wheat powdery mildew)?
**A.** 38.74%

**Q.** And the “PIABS (photosynthetic performance index)” value ([2]; 10 nM)?
**A.** 28.35 ± 1.66c

**Q.** What about the Cold damage index ([2]; 10 nM) of the same compound?
**A.** 65%

**Q.** And the “PIABS (photosynthetic performance index)” value ([2]; 100 nM)?
**A.** 30.67 ± 2.07bc

**Q.** What about the Cold damage index ([2]; 100 nM) of the same compound?
**A.** 45%

**Q.** And the “PIABS (photosynthetic performance index)” value ([2]; 1,000 nM)?
**A.** 35.23 ± 1.96b

**Q.** What about the Cold damage index ([2]; 1,000 nM) of the same compound?
**A.** 30%

**Q.** And the “Decrease of cold damage index” value [2]?
**A.** 60%

**Q.** What about the “Increase of PIABS” value [2] of the same compound?
**A.** 73%

**Q.** What about the “PIABS (photosynthetic performance index)” value ([2]; 10,000 nM) of the same compound?
**A.** 40.16 ± 2.15a

**Q.** What about the Cold damage index ([2]; 10,000 nM) of the same compound?
**A.** 15%

**Q.** What about the Death rate (cotton under salt stress; 1 nM) of the same compound?
**A.** 51%

**Q.** And the Salt damage index (cotton under salt stress; 1 nM)?
**A.** 66%

**Q.** And the Death rate (cotton under salt stress; 10 nM)?
**A.** 47%

**Q.** What about the Salt damage index (cotton under salt stress; 10 nM) of the same compound?
**A.** 58%

**Q.** What about the Death rate (cotton under salt stress; 100 nM) of the same compound?
**A.** 34%

**Q.** And the Salt damage index (cotton under salt stress; 100 nM)?
**A.** 54%

**Q.** And the Death rate (cotton under salt stress; 1,000 nM)?
**A.** 30%

**Q.** What about the Salt damage index (cotton under salt stress; 1,000 nM) of the same compound?
**A.** 48%
